Test results taken from PubChem BioAssay AID206 (DTP/NCI, 2004).
Values joined by “and” are separate entries in the source; they are usually repeats but may differ in a detail not shown here. Equal entries are not always repeated. Results filed as inconclusive are left out. Starred links: 1 amine or outer side, 2 acyl side, 3 side chain; linkers in the order of their positions; H or OH if unused. Positions of bridges follow the written chain, without caps; N, C: chain ends. Non-standard residues stand in square brackets, D forms with d. Residues, ends and D or L forms follow the SMILES beside them. Chains are numbered I, II in the order given. Actinocin(9to1) = Cc1c2oc3c(C)ccc(C(=O)[*:1])c3nc-2c(C(=O)[*:2])c(N)c1=O; aThr = C[C@H](O)[C@H](N)C(=O)O; NMeV = CN[C@H](C(=O)O)C(C)C; Sar = CNCC(=O)O

Tested on: nude mice, HT29 intrarenal xenograft, tumor weight T/C
Test: NCI In Vivo Anticancer Drug Screen. Data for tumor model HT29;CX-1 Human Adenocarcinoma (MER+) (intrarenal inoculation) in NU/NU Swiss (nude) mice
Conditions: endpoint: mean tumor weight change, higher = larger tumour
Experimental: The antitumor activity of compounds was measured in mice bearing transplantable tumors. Survival or tumor size were measured and the results are expressed as the measurement made in the treated group (T) divided by the measurement made in the vehicle treated control group (C). The tumor model used in this assay is HT29;CX-1 Human Adenocarcinoma (MER+) (intrarenal inoculation) in NU/NU Swiss (nude) mice

[1] = dose: 25.0 mg/kg/injection, schedule: Q01DX010 (sc), vehicle: saline
[2] = dose: 37.5 mg/kg/injection, schedule: Q04DX004 (sc), vehicle: saline with Tween-80
[3] = dose: 50.0 mg/kg/injection, schedule: Q01DX010 (sc), vehicle: saline
[4] = dose: 300.0 mg/kg/injection, schedule: Q04DX004 (sc), vehicle: Klucel (hydroxypropylcellulose) (HPC)
[5] = dose: 600.0 mg/kg/injection, schedule: Q04DX004 (sc), vehicle: Klucel (hydroxypropylcellulose) (HPC)
[6] = dose: 1200.0 mg/kg/injection, schedule: Q04DX004 (sc), vehicle: Klucel (hydroxypropylcellulose) (HPC)
[7] = dose: 2400.0 mg/kg/injection, schedule: Q04DX004 (sc), vehicle: Klucel (hydroxypropylcellulose) (HPC)
[8] = dose: 200.0 mg/kg/injection, schedule: Q04DX004 (sc), vehicle: saline with Tween-80
[9] = dose: 100.0 mg/kg/injection, schedule: Q04DX004 (sc), vehicle: saline with Tween-80
[10] = dose: 0.13 mg/kg/injection, schedule: Q01DX010 (sc), vehicle: saline
[11] = dose: 200.0 mg/kg/injection, schedule: Q01DX010 (sc), vehicle: Klucel (hydroxypropylcellulose) (HPC)
[12] = dose: 75.0 mg/kg/injection, schedule: Q04DX004 (sc), vehicle: saline with Tween-80
[13] = dose: 150.0 mg/kg/injection, schedule: Q04DX004 (sc), vehicle: saline with Tween-80

In the case of `CCN(CC)CC[n+]1ccc2c(C)c3[nH]c4ccc(O)cc4c3c(C)c2c1`, the T/C (dose: 12.5 mg/kg/injection, schedule: Q04DX004 (sc), vehicle: suspension in saline) is reported as 56 % of control and the T/C (dose: 25.0 mg/kg/injection, schedule: Q04DX004 (sc), vehicle: suspension in saline) is reported as 24 % of control.

For `Cc1cc(N(CC(C)Br)CC(C)Br)ccc1N=Nc1ccccc1C(=O)O` (centres undefined), the T/C (dose: 3.13 mg/kg/injection, schedule: Q01DX010 (sc), vehicle: saline with Tween-80) was 69 % of control, the T/C (dose: 6.25 mg/kg/injection, schedule: Q01DX010 (sc), vehicle: saline with Tween-80) was 18 % of control and the T/C (dose: 12.5 mg/kg/injection, schedule: Q01DX010 (sc), vehicle: saline with Tween-80) was 14 % of control.

`O=C(N/N=C\c1cc(Br)cc(Br)c1O)N/N=C/c1cc(Br)cc(Br)c1O` was tested, and the T/C (dose: 200.0 mg/kg/injection, schedule: Q01DX010 (sc), vehicle: saline with Tween-80) was 71 % of control and 94 % of control, the T/C (dose: 400.0 mg/kg/injection, schedule: Q01DX010 (sc), vehicle: saline with Tween-80) was 43 % of control and 56 % of control and the T/C (dose: 800.0 mg/kg/injection, schedule: Q01DX010 (sc), vehicle: saline with Tween-80) was 76 % of control.

In the case of `CC(=O)C(=O)O.CC(=O)C(=O)O.[NH-]C1CCCCC1[NH-].[Pt+2]` (centres undefined), the T/C (dose: 15.0 mg/kg/injection, schedule: Q04DX004 (sc), vehicle: other) is reported as 64 % of control, the T/C (dose: 30.0 mg/kg/injection, schedule: Q04DX004 (sc), vehicle: other) is reported as 64 % of control and the T/C (dose: 60.0 mg/kg/injection, schedule: Q04DX004 (sc), vehicle: other) is reported as 47 % of control.

`Cc1c2oc3c(C)ccc(C(=O)N[C@@H]4C(=O)N[C@H](C(C)C)C(=O)N5CCC[C@H]5C(=O)N(C)CC(=O)N(C)[C@@H](C(C)C)C(=O)O[C@H]4C)c3nc-2c(C(=O)N[C@@H]2C(=O)N[C@H](C(C)C)C(=O)N3CCC[C@H]3C(=O)N(C)CC(=O)N(C)[C@@H](C(C)C)C(=O)O[C@H]2C)c(N)c1=O` (I: [aThr][dV]P[Sar][NMeV] / II: [aThr][dV]P[Sar][NMeV]; ester I:1-I:C, II:1-II:C; linker I:N-II:N via Actinocin(9to1)) was tested, and the T/C (dose: 25.0 micrograms/kg/injection, schedule: Q01DX010 (sc), vehicle: saline) was 31 % of control.

With `O=c1n(CC2CO2)c(=O)n(CC2CO2)c(=O)n1CC1CO1` (centres undefined) the T/C (dose: 18.75 mg/kg/injection, schedule: Q04DX004 (sc), vehicle: saline with Tween-80) was 42 % of control, the T/C [1] was 76 % of control and the T/C [2] was 33 % of control. For the same compound, the T/C [3] was 29 % of control.

For `CC(C)(C)C1CCCCC1`, the T/C [4] was 94 % of control, the T/C [5] was 97 % of control and the T/C [6] was 56 % of control. For the same compound, the T/C [7] was 55 % of control.

For `COc1cccc2c1C(=O)c1c(O)c3c(c(O)c1C2=O)C[C@@](O)(C(C)=O)C[C@@H]3OC1CC(N(Cc2ccccc2)Cc2ccccc2)C(O)C(C)O1` (some centres undefined), the T/C (dose: 25.0 mg/kg/injection, schedule: Q01DX010 (sc), vehicle: water) was 36 % of control, the T/C (dose: 31.25 mg/kg/injection, schedule: Q04DX004 (sc), vehicle: water) was 104 % of control and 212 % of control and the T/C (dose: 62.5 mg/kg/injection, schedule: Q04DX004 (sc), vehicle: water) was 97 % of control and 220 % of control.

For `CC(C#N)(C#N)N=Nc1ccc(Cl)cc1Cl`, the T/C [8] was 116 % of control and the T/C (dose: 1600.0 mg/kg/injection, schedule: Q04DX004 (sc), vehicle: saline with Tween-80) was 106 % of control.

With `Clc1ccc2nnnn2n1` the T/C [9] was 114 % of control and the T/C [8] was 45 % of control.

In the case of `Cc1cc2c(c3oc(C4(C)OC4C4OC4C)cc(=O)c13)C(=O)c1c(O)c(C3CC(C)(N(C)C)C(O)C(C)O3)cc(C3CC(N(C)C)C(O)C(C)O3)c1C2=O` (centres undefined), the T/C [10] is reported as 50 % of control.

With `COc1cc2cc3c4cc(OC)c(OC)cc4cc[n+]3c(C)c2cc1OC` (tested in a mixture with another compound) the T/C [3] was 76 % of control and the T/C (dose: 100.0 mg/kg/injection, schedule: Q01DX010 (sc), vehicle: saline) was 68 % of control.

`CS(=O)(=O)OCCN(CCOS(C)(=O)=O)c1ccc(C=O)cc1` was tested, and the T/C (dose: 12.5 mg/kg/injection, schedule: Q01DX010 (sc), vehicle: saline) was 100 % of control, the T/C [1] was 90 % of control and the T/C [3] was 37 % of control.

In the case of `C=CCNc1ccc(C)cc1`, the T/C (dose: 50.0 mg/kg/injection, schedule: Q01DX010 (sc), vehicle: Klucel (hydroxypropylcellulose) (HPC)) is reported as 105 % of control and the T/C [11] is reported as 86 % of control.

For `Nc1cc2c3c(cccc3c1)C(=O)N(CCN1CCCC1)C2=O`, the T/C (dose: 50.0 mg/kg/injection, schedule: Q04DX004 (sc), vehicle: saline with Tween-80) was 170 % of control, the T/C [9] was 202 % of control and the T/C [8] was 233 % of control. The T/C (dose: 400.0 mg/kg/injection, schedule: Q04DX004 (sc), vehicle: saline with Tween-80) was 177 % of control.

In the case of `COC1=CC(=O)C(OC)=C(OC)C1=O`, the T/C (dose: 38.0 mg/kg/injection, schedule: Q04DX004 (sc), vehicle: saline with Tween-80) is reported as 78 % of control, the T/C [12] is reported as 88 % of control and the T/C [13] is reported as 89 % of control.

In the case of `COC1=C2C[C@@H](C)C[C@@H](OC)[C@@H](O)[C@H](C)/C=C(\C)[C@@H](OC(N)=O)[C@H](OC)/C=C\C=C(/C)C(=O)NC(=CC1=O)C2=O`, the T/C (dose: 2.0 mg/kg/injection, schedule: Q04DX004 (sc), vehicle: saline) is reported as 110 % of control, the T/C (dose: 4.0 mg/kg/injection, schedule: Q04DX004 (sc), vehicle: saline) is reported as 113 % of control and the T/C (dose: 8.0 mg/kg/injection, schedule: Q04DX004 (sc), vehicle: saline) is reported as 54 % of control. For the same compound, the T/C (dose: 16.0 mg/kg/injection, schedule: Q04DX004 (sc), vehicle: saline) was 59 % of control.

With `C=C[Si]12OCCN(CCO1)CCO2` the T/C [4] was 92 % of control, the T/C [5] was 93 % of control and the T/C [6] was 110 % of control. For the same compound, the T/C [7] was 71 % of control.

In the case of `N#Cc1cn(C2OC(CO)C(O)C2O)c2ncnc(N)c12` (centres undefined), the T/C [10] is reported as 81 % of control and the T/C (dose: 0.25 mg/kg/injection, schedule: Q01DX010 (sc), vehicle: saline) is reported as 171 % of control.

`O=c1[nH]c(=O)n([C@H]2CCCO2)cc1F` was tested, and the T/C (dose: 100.0 mg/kg/injection, schedule: Q01DX010 (sc), vehicle: Klucel (hydroxypropylcellulose) (HPC)) was 55 % of control and the T/C [11] was 103 % of control.

`CC(=O)Oc1c[nH]c(=O)[nH]c1=O` was tested, and the T/C (dose: 100.0 mg/kg/injection, schedule: Q04DX004 (sc), vehicle: distilled water + Tween-80) was 122 % of control, the T/C (dose: 200.0 mg/kg/injection, schedule: Q04DX004 (sc), vehicle: distilled water + Tween-80) was 117 % of control and the T/C (dose: 400.0 mg/kg/injection, schedule: Q04DX004 (sc), vehicle: distilled water + Tween-80) was 107 % of control. For the same compound, the T/C (dose: 800.0 mg/kg/injection, schedule: Q04DX004 (sc), vehicle: distilled water + Tween-80) was 93 % of control.

In the case of `Clc1cc(Cl)c(C[N+]23CN4CN(CN(C4)C2)C3)cc1Cl`, the T/C [2] is reported as 85 % of control, the T/C [12] is reported as 95 % of control and the T/C [13] is reported as 68 % of control.

With `OC1OC2COC(c3ccccc3)OC2C(O)C1O` (centres undefined) the T/C (dose: 200.0 mg/kg/injection, schedule: Q04DX004 (sc), vehicle: water) was 94 % of control, the T/C (dose: 400.0 mg/kg/injection, schedule: Q04DX004 (sc), vehicle: water) was 118 % of control and the T/C (dose: 800.0 mg/kg/injection, schedule: Q04DX004 (sc), vehicle: water) was 87 % of control. For the same compound, the T/C (dose: 1600.0 mg/kg/injection, schedule: Q04DX004 (sc), vehicle: water) was 118 % of control.

For `Cn1cnc([N+](=O)[O-])c1Sc1ncn[nH]1`, the T/C (dose: 200.0 mg/kg/injection, schedule: Q04DX004 (sc), vehicle: suspension in saline) was 49 % of control.

In the case of `O=[N+]([O-])O.[Ga]`, the T/C (dose: 50.0 mg/kg/injection, schedule: Q04DX004 (sc), vehicle: saline) is reported as 99 % of control, the T/C (dose: 100.0 mg/kg/injection, schedule: Q04DX004 (sc), vehicle: saline) is reported as 66 % of control and the T/C (dose: 200.0 mg/kg/injection, schedule: Q04DX004 (sc), vehicle: saline) is reported as 80 % of control. For the same compound, the T/C (dose: 400.0 mg/kg/injection, schedule: Q04DX004 (sc), vehicle: saline) was 103 % of control.

In the case of `C[Si](C)(CCl)N[Si](C)(C)CCl`, the T/C [12] is reported as 91 % of control, the T/C [13] is reported as 84 % of control and the T/C (dose: 300.0 mg/kg/injection, schedule: Q04DX004 (sc), vehicle: saline with Tween-80) is reported as 101 % of control. The T/C (dose: 600.0 mg/kg/injection, schedule: Q04DX004 (sc), vehicle: saline with Tween-80) was 78 % of control.
